Laboratory results taken from US6355640B1, “Pyrazolopyridine adenosine antagonists” (Fujisawa Pharmaceutical Co., Ltd., priority 1993, dated 2002).
Marks after values point to notes of the source that are not given here.

What was measured:
[1] = test system: cisplatin induced renal failure; assay: Test 1. Effect on Cisplatin-induced Renal Failure; format: in vivo; details: Male JCL:SD rats, cisplatin 4.5 mg/kg i.p. at the same time as first dose; test compound 0.1 mg/kg i.v. twice a day for 3 days; measured on the 8th day; mean; p < 0.01 vs control group
Method: Male JCL:SD strain rats aged 9 weeks weighing 280-300 g received cisplatin (4.5 mg/kg) intraperitoneally. Normal rats were injected with an equal amount of saline instead of cisplatin. The effect of repeated intravenous administration of the test compound (0.1 mg/kg, twice a day) on cisplatin induced renal failure was investigated in rats. Cisplatin was given at the same time of the first dose of the test compound (for the test group) or vehicle (saline) (for the control group), and the test compound or vehicle was given for 3 days. The plasma creatinine concentrations were measured in all rats on the 8th day.

Row | Compound | melting point | serum creatinine [1]
1 | O=C(O)COc1cccc2c1CCC(n1nc(-c3c(-c4ccccc4)nn4ccccc34)ccc1=O)C2=O (centres unmarked) [Example 119, 3-[2-(1-Carboxymethoxy-5-oxo-5,6,7,8-tetrahydro-6-naphthyl)-3-oxo-2,3-dihydropyridazin-6-yl]-2-phenylpyrazolo[1,5-a]pyridine] | 225 to 227 °C | –
2 | O=C1NCCCC1n1nc(-c2c(-c3ccccc3)nn3ccccc23)ccc1=O (centres unmarked) [Example 26, 3-[2-(2-Oxopiperidin-3-yl)-3-oxo-2,3-dihydropyridazin-6-yl]-2-phenylpyrazolo[1,5-a]pyridine] | 140 to 145 °C (dec.) | –
3 | COc1ccc2c(c1)CC[C@@H](O)[C@@H]2n1nc(-c2c(-c3ccccc3)nn3ccccc23)ccc1=O (relative stereo) [Example 30, trans-3-[2-(6-Hydroxy-2-methoxy-5,6,7,8-tetrahydro-5-naphthyl)-3-oxo-2,3-dihydropyridazin-6-yl]-2-phenylpyrazolo[1,5-a]pyridine] | 146 to 150 °C | –
4 | O=C1CCCC(n2nc(-c3c(-c4ccccc4)nn4ccccc34)ccc2=O)C1 (centres unmarked) [Example 102, 3-[2-(3-oxocyclohexyl)-3-oxo-2,3-dihydropyridazin-6-yl]-2-phenylpyrazolo[1,5-a]pyridine] | 126 to 127 °C | –
5 | CON=C1CCCCC1n1nc(-c2c(-c3ccccc3)nn3ccccc23)ccc1=O (centres unmarked) [Example 90, 3-[2-{2-(Methoxyimino)cyclohexyl}-3-oxo-2,3-dihydropyridazin-6-yl]-2-phenylpyrazolo[1,5-a]pyridine] | 85 to 87 °C | –
6 | O=C(CC1=C(n2nc(-c3c(-c4ccccc4)nn4ccccc34)ccc2=O)CCCC1)N1CCSCC1 [Example 80, 3-[2-{2-(Thiomorpholin-4-ylcarbonyl)methyl-1-cyclohexenyl}-3-oxo-2,3-dihydropyridazin-6-yl]-2-phenylpyrazolo[1,5-a]pyridine] | 180.5 to 182.5 °C | –
7 | CCOC(=O)C=C1CCC(n2nc(-c3c(-c4ccccc4)nn4ccccc34)ccc2=O)CC1 (centres unmarked) [Example 94, 3-[2-(4-ethoxycarbonylmethylenecyclohexyl)-3-oxo-2,3-dihydropyridazin-6-yl]-2-phenylpyrazolo[1,5-a]-pyridine] | 166 to 168 °C | –
8 | O=C(O)C[C@H]1CC[C@H](n2nc(-c3c(-c4ccccc4)nn4ccccc34)ccc2=O)C1 (relative stereo) [Example 40, trans-3-[2-(3-Carboxymethylcyclopentyl)-3-oxo-2,3-dihydropyridazin-6-yl]-2-phenylpyrazolo[1,5-a]pyridine] | 212 to 213 °C | –
9 | O=C(O)C[C@H]1CCCC[C@H]1n1nc(-c2c(-c3ccccc3)nn3ccccc23)ccc1=O (relative stereo) [Example 38, cis-3-[2-(2-carboxymethylcyclohexyl)-3-oxo-2,3-dihydropyridazin-6-yl]-2-phenylpyrazolo[1,5-a]pyridine] | 252 to 253 °C | –
10 | O=c1ccc(-c2c(-c3ccccc3)nn3ccccc23)nn1C1=C(CCO)CCCC1 [Example 105, 3-[2-{2-(2-hydroxyethyl)-1-cyclohexenyl}-3-oxo-2,3-dihydropyridazin-6-yl]-2-phenylpyrazolo[1,5-a]pyridine] | 198 to 199 °C | –
11 | O=C(CC1=C(n2nc(-c3c(-c4ccccc4)nn4ccccc34)ccc2=O)CCCC1)N1CCCC1 [Example 84, 3-[2-{2-(Pyrrolidin-1-ylcarbonyl)methyl-1-cyclohexenyl}-3-oxo-2,3-dihydropyridazin-6-yl]-2-phenylpyrazolo[1,5-a]pyridine] | 178 to 179 °C | –
12 | O=C(O)C1CCCCC1n1nc(-c2c(-c3ccccc3)nn3ccccc23)ccc1=O (centres unmarked) [Example 109, 3-[2-(2-carboxycyclohexyl)-3-oxo-2,3-dihydropyridazin-6-yl]-2-phenylpyrazolo[1,5-a]pyridine] | 164 °C | –
13 | O=C(O)[C@H]1CCC(=O)[C@@H](n2nc(-c3c(-c4ccccc4)nn4ccccc34)ccc2=O)C1 (relative stereo) (hydrate or solvate) [Example 17, cis-3-[2-(5-Carboxy-2-oxocyclohexyl)-3-oxo-2,3-dihydropyridazin-6-yl]-2-phenylpyrazolo[1,5-a]pyridine] | 155 to 165 °C | –
14 | CCOC(=O)CN(C)C(=O)CC1=C(n2nc(-c3c(-c4ccccc4)nn4ccccc34)ccc2=O)CCCC1 [Example 68, 3-[2-{2-(N-ethoxycarbonylmethyl-N-methylcarbamoyl)methyl-1-cyclohexenyl}-3-oxo-2,3-dihydropyridazin-6-yl]-2-phenylpyrazolo[1,5-a]pyridine] | 56 to 60 °C | –
15 | CN1CCN(C(=O)CC2=C(n3nc(-c4c(-c5ccccc5)nn5ccccc45)ccc3=O)CCCC2)CC1.Cl (hydrate or solvate) | 188 to 191 °C | –
16 | O=C(CCC1=C(n2nc(-c3c(-c4ccccc4)nn4ccccc34)ccc2=O)CCCC1)OCc1ccccc1 [Example 66, 3-[2-{2-(2-benzyloxycarbonylethyl)-1-cyclohexenyl}-3-oxo-2,3-dihydropyridazin-6-yl]-2-phenylpyrazolo[1,5-a]pyridine] | 111 to 113 °C | –
17 | NC(=O)CC1=C(n2nc(-c3c(-c4ccccc4)nn4ccccc34)ccc2=O)CCCC1 [Example 69, 3-[2-(2-Carbamoylmethyl-1-cyclohexenyl)-3-oxo-2,3-dihydropyridazin-6-yl]-2-phenylpyrazolo[1,5-a]pyridine] | 204 to 205 °C | –
18 | O=c1ccc(-c2c(-c3ccccc3)nn3ccccc23)nn1-c1ccccc1 [Example 99, 3-(2-phenyl-3-oxo-2,3-dihydropyridazin-6-yl)-2-phenylpyrazolo[1,5-a]pyridine] | 170 °C | –
19 | CCCn1c(-n2nc(-c3c(-c4ccccc4)nn4ccccc34)ccc2=O)cc(=O)n(CCC)c1=O [Example 27, 3-[2-(1,3-Dipropyl-2,4-dioxo-1,2,3,4-tetrahydropyrimidin-6-yl)-3-oxo-2,3-dihydropyridazin-6-yl]-2-phenylpyrazolo[1,5-a]pyridine] | 155.3 °C | –
20 | O=C(CC1=C(n2nc(-c3c(-c4ccccc4)nn4ccccc34)ccc2=O)CCCC1)N1CCCCC1 [Example 85, 3-[2-{2-(Piperidinocarbonyl)methyl-1-cyclohexenyl}-3-oxo-2,3-dihydropyridazin-6-yl]-2-phenylpyrazolo[1,5-a]-pyridine] | 184 to 185 °C | –
21 | O=C(CC1=C(n2nc(-c3c(-c4ccccc4)nn4ccccc34)ccc2=O)CCCC1)N1CCOCC1 [Example 83, 3-[2-(2-Morpholinocarbonylmethyl-1-cyclohexenyl)-3-oxo-2,3-dihydropyridazin-6-yl]-2-phenylpyrazolo[1,5-a]-pyridine] | 202 to 204 °C | –
22 | C[C@@]1(O)CCCC[C@H]1n1nc(-c2c(-c3ccccc3)nn3ccccc23)ccc1=O (relative stereo) [Example 35, 3-[2-{(1R*,2R*)-2-hydroxy-2-methylcyclohexyl}-3-oxo-2,3-dihydropyridazin-6-yl]-2-phenylpyrazolo[1,5-a]-pyridine] | 197 to 198 °C | –
23 | O=C(O)CCCC1=C(n2nc(-c3c(-c4ccccc4)nn4ccccc34)ccc2=O)CCCC1 [Example 53, 3-[2-{2-(3-Carboxypropyl)-1-cyclohexenyl}-3-oxo-2,3-dihydropyridazin-6-yl]-2-phenylpyrazolo[1,5-a]pyridine] | 145 to 147 °C | –
24 | O=c1ccc(-c2c(-c3ccccc3)nn3ccccc23)nn1C1CCCCC1=NO (centres unmarked) (hydrate or solvate) [Example 89, 3-[2-(2-Hydroxyiminocyclohexyl)-3-oxo-2,3-dihydropyridazin-6-yl]-2-phenylpyrazolo[1,5-a]pyridine] | 238 to 240 °C | –
25 | O=c1ccc(-c2c(-c3ccccc3)nn3ccccc23)nn1[C@@H]1CCCC[C@@H]1O (relative stereo) [Example 4, cis-3-[2-(2-hydroxycyclohexyl)-3-oxo-2,3-dihydropyridazin-6-yl]-2-phenylpyrazolo[1,5-a]pyridine] | 195 to 197 °C | –
26 | O=C(O)CN1CCCC(n2nc(-c3c(-c4ccccc4)nn4ccccc34)ccc2=O)C1=O (centres unmarked) [Example 117, 3-[2-(1-Carboxymethyl-2-oxopiperidin-3-yl)-3-oxo-2,3-dihydropyridazin-6-yl]-2-phenylpyrazolo[1,5-a]pyridine] | 145 to 150 °C | –
27 | O=C(O)CC1=C(n2nc(-c3c(-c4ccccc4)nn4ccccc34)ccc2=O)CCCCC1 [Example 19, 3-[2-(2-carboxymethyl-1-cycloheptenyl)-3-oxo-2,3-dihydropyridazin-6-yl]-2-phenylpyrazolo[1,5-a]-pyridine] | – | 1.32** mg/dl
28 | CC(C)(C)OC(=O)/C=C1\CCCCC1n1nc(-c2c(-c3ccccc3)nn3ccccc23)ccc1=O (centres unmarked) [Example 95(3), (E)-3-[2-{2-(tert-Butoxycarbonylmethylene)-cyclohexyl}-3-oxo-2,3-dihydropyridazin-6-yl]-2-phenylpyrazolo[1,5-a]pyridine] | 110 to 116 °C | –
29 | O=C1CCCCC1Oc1ccc(-c2c(-c3ccccc3)nn3ccccc23)nn1 (single isomer, unassigned) [Example 2 (less polar compound), 3-[3-(2-Oxocyclohexyl)oxypyridazin-6-yl]-2-phenylpyrazolo[1,5-a]pyridine] | 214 to 216 °C | –
